One assay has as its target TNIK (Homo sapiens (Human), UniProt Q9UKE5). Kind of assay: TNIK enzymatic assay (radiometric kinase inhibition). The assay is classed as biochemical. The procedure:
The compounds were studied for function as TNIK inhibitors to generate the data of Table 1. […] (specific activity and concentration as required). The reaction is initiated by the addition of the Mg/ATP mix. After incubation for 40 minutes at room temperature, the reaction is stopped by the addition of phosphoric acid to a concentration of 0.5%.

A further assay has as its target MAP4K4 (h) (Homo sapiens (Human), UniProt O95819). Kind of assay: MAP4K4 in vitro kinase assay (radiometric). The assay is classed as biochemical. The settings on record: read-out: MAP4K4_IC50. The procedure:
(specific activity and concentration as required). The reaction is initiated by the addition of the Mg/ATP mix. After incubation for 40 minutes at room temperature, the reaction is stopped by the addition of phosphoric acid to a concentration of 0.5%.

The mark [1] stands for this setting: TNIK enzymatic assay, Table 1, read-out: IC50.

Each structure is given as a SMILES string. Like-named read-outs stand apart in the source and are kept apart here.

MAP4K4 (h), sequence (O95819 whole entry): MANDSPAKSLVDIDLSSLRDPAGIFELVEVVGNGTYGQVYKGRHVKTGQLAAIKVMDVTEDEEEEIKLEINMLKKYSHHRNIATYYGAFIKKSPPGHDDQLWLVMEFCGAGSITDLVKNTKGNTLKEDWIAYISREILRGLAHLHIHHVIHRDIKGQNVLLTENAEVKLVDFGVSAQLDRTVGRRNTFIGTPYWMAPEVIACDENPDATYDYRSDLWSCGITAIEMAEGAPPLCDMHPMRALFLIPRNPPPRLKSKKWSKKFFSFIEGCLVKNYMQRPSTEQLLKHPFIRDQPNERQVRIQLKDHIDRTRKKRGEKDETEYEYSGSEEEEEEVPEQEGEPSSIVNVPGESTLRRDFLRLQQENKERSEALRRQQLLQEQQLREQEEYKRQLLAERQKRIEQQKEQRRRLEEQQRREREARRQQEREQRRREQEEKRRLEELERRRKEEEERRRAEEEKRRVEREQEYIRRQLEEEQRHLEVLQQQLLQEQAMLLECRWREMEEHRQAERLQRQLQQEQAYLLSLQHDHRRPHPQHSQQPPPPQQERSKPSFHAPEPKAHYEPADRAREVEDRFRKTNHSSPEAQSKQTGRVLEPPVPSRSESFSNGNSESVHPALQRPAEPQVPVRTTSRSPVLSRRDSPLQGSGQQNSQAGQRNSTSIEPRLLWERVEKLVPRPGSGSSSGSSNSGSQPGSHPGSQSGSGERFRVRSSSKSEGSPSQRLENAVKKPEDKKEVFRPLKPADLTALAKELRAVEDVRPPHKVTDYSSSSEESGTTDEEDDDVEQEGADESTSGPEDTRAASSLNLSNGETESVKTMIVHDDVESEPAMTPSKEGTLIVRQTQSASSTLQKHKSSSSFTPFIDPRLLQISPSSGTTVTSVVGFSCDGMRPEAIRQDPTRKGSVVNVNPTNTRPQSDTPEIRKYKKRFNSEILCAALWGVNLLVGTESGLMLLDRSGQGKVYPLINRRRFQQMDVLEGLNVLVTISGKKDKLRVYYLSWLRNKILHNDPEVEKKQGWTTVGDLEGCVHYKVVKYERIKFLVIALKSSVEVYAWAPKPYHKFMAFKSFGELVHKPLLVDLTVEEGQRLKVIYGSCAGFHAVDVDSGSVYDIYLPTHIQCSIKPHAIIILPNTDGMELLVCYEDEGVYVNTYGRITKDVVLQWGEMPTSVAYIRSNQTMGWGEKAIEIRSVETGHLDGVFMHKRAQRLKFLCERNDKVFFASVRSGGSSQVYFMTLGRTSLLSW
TNIK, sequence (Q9UKE5 whole entry): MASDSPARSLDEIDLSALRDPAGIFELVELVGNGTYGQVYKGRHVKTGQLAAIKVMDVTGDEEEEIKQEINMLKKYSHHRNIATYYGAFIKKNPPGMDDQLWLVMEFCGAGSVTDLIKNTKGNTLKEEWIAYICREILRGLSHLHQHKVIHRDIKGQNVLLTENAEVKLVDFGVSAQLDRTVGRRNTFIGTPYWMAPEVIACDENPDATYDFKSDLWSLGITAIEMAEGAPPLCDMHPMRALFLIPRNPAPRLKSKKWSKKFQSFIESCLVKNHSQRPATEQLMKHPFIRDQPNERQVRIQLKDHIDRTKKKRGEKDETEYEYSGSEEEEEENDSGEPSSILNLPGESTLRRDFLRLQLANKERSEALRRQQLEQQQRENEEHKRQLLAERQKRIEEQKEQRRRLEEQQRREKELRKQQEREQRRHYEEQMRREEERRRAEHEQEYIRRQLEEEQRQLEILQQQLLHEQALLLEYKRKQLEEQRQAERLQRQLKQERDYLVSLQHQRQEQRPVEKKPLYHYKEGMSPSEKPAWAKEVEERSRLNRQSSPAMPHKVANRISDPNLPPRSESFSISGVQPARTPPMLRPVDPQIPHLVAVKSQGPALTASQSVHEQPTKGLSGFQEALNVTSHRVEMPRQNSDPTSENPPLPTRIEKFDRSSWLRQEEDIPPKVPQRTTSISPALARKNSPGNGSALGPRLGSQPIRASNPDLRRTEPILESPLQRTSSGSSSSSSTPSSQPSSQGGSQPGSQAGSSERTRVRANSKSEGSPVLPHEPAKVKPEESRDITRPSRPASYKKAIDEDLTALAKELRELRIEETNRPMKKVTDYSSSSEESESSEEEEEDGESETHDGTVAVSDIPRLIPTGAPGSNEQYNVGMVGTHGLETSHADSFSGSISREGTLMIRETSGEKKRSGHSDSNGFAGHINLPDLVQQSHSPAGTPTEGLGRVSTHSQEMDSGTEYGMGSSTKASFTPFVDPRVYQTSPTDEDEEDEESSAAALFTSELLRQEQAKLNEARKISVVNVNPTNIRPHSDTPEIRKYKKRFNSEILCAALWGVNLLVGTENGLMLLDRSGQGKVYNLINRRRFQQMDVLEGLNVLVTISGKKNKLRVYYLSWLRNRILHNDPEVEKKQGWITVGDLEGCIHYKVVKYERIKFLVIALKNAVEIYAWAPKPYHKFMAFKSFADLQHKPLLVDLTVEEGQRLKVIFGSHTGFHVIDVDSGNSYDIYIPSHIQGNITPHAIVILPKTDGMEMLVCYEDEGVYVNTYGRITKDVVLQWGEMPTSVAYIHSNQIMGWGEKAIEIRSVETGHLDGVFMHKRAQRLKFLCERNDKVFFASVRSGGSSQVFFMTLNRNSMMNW

On to `COc1cccc(NC(=O)c2ccc(-c3c(-c4ccc(F)cc4)ncn3C3CCCCC3)o2)c1` [Compound 53, 5-(1-cyclohexyl-4-(4-fluorophenyl)-1H-imidazol-5-yl)-N-(3-methoxyphenyl)furan-2-carboxamide], for which the IC50 was found to be 138 nM at TNIK (setting [1]), 138 nM at TNIK (read-out: TNIK_IC50) and 244 nM at MAP4K4 (h).
Regarding `COc1ccc(NC(=O)c2ccc(-c3c(-c4ccc(F)cc4)ncn3C3CCCCC3)o2)cc1` [Compound 54, 5-(1-cyclohexyl-4-(4-fluorophenyl)-1H-imidazol-5-yl)-N-(4-methoxyphenyl)furan-2-carboxamide], the IC50 at TNIK (setting [1]) came to 60 nM; on TNIK (read-out: TNIK_IC50), 60 nM; on MAP4K4 (h), 107 nM.
Regarding `O=C(Nc1ccccc1Cl)c1ccc(-c2c(-c3ccc(F)cc3)ncn2C2CCCCC2)o1` [Compound 55, N-(2-chlorophenyl)-5-(1-cyclohexyl-4-(4-fluorophenyl)-1H-imidazol-5-yl)furan-2-carboxamide], the IC50 amounted to 24 nM on TNIK (setting [1]), 24 nM on TNIK (read-out: TNIK_IC50) and 43.4 nM at MAP4K4 (h).
In the case of `O=C(Nc1ccc(Cl)cc1)c1ccc(-c2c(-c3ccc(F)cc3)ncn2C2CCCCC2)o1` [Compound 56, N-(4-chlorophenyl)-5-(1-cyclohexyl-4-(4-fluorophenyl)-1H-imidazol-5-yl)furan-2-carboxamide], the IC50 on TNIK (setting [1]) stood at 99 nM; at TNIK (read-out: TNIK_IC50), 99 nM; at MAP4K4 (h) it was 195 nM.
Turning to `O=C(Nc1ccc(F)cc1F)c1ccc(-c2c(-c3ccc(F)cc3)ncn2C2CCCCC2)o1` [Compound 57, 5-(1-cyclohexyl-4-(4-fluorophenyl)-1H-imidazol-5-yl)-N-(2,4-difluorophenyl)furan-2-carboxamide], the IC50 at TNIK (setting [1]) was determined as 38 nM; at TNIK (read-out: TNIK_IC50), 38 nM; at MAP4K4 (h) it was 111 nM.
`COc1cc(NC(=O)c2ccc(-c3c(-c4ccc(F)cc4)ncn3C3CCCCC3)o2)cc(OC)c1` [Compound 58, 5-(1-cyclohexyl-4-(4-fluorophenyl)-1H-imidazol-5-yl)-N-(3,5-dimethoxyphenyl)furan-2-carboxamide]: the IC50 at TNIK (setting [1]) worked out at 275 nM; on TNIK (read-out: TNIK_IC50), 275 nM; at MAP4K4 (h), 581 nM.
On to `Cc1cccc(NC(=O)c2ccc(-c3c(-c4ccc(F)cc4)ncn3C3CCCCC3)o2)c1C` [Compound 59, 5-(1-cyclohexyl-4-(4-fluorophenyl)-1H-imidazol-5-yl)-N-(2,3-dimethylphenyl)furan-2-carboxamide], for which the results for the IC50 at TNIK (setting [1]), on TNIK (read-out: TNIK_IC50) and at MAP4K4 (h) were 562 nM, 562 nM and > 1000 nM, respectively.
As for `Cc1cccc(C)c1NC(=O)c1ccc(-c2c(-c3ccc(F)cc3)ncn2C2CCCCC2)o1` [Compound 60, 5-(1-cyclohexyl-4-(4-fluorophenyl)-1H-imidazol-5-yl)-N-(2,6-dimethylphenyl)furan-2-carboxamide], the IC50 was 874 nM at TNIK (setting [1]), 874 nM at TNIK (read-out: TNIK_IC50) and > 1000 nM on MAP4K4 (h).
Consider `CCc1ccccc1NC(=O)c1ccc(-c2c(-c3ccc(F)cc3)ncn2C2CCCCC2)o1` [Compound 61, 5-(1-cyclohexyl-4-(4-fluorophenyl)-1H-imidazol-5-yl)-N-(2-ethylphenyl)furan-2-carboxamide], for which the results for the IC50 on TNIK (setting [1]), at TNIK (read-out: TNIK_IC50) and at MAP4K4 (h) were 164 nM, 164 nM and 247 nM, respectively.
On to `O=C(Nc1ccccc1F)c1ccc(-c2c(-c3ccc(F)cc3)ncn2C2CCCCC2)o1` [Compound 62, 5-(1-cyclohexyl-4-(4-fluorophenyl)-1H-imidazol-5-yl)-N-(2-fluorophenyl)furan-2-carboxamide], for which the values for the IC50 on TNIK (setting [1]), at TNIK (read-out: TNIK_IC50) and on MAP4K4 (h) were 25 nM, 25 nM and 46.9 nM, respectively.
As to `O=C(Nc1cccc(F)c1)c1ccc(-c2c(-c3ccc(F)cc3)ncn2C2CCCCC2)o1` [Compound 63, 5-(1-cyclohexyl-4-(4-fluorophenyl)-1H-imidazol-5-yl)-N-(3-fluorophenyl)furan-2-carboxamide], the IC50 at TNIK (setting [1]) came to 108 nM; on TNIK (read-out: TNIK_IC50) it was 108 nM; at MAP4K4 (h), 127 nM.
Regarding `CCOc1ccc(NC(=O)c2ccc(-c3c(-c4ccc(F)cc4)ncn3C3CCCCC3)o2)cc1` [Compound 64, 5-(1-cyclohexyl-4-(4-fluorophenyl)-1H-imidazol-5-yl)-N-(4-ethoxyphenyl)furan-2-carboxamide], the IC50 on TNIK (setting [1]) came to 62 nM; on TNIK (read-out: TNIK_IC50) it was 62 nM; on MAP4K4 (h) it was 175 nM.
As for `Cc1ccccc1NC(=O)c1ccc(-c2c(-c3ccc(F)cc3)ncn2C2CCCCC2)o1` [Compound 65, 5-(1-cyclohexyl-4-(4-fluorophenyl)-1H-imidazol-5-yl)-N-(o-tolyl)furan-2-carboxamide], the IC50 at TNIK (setting [1]) came to 152 nM; on TNIK (read-out: TNIK_IC50), 152 nM; at MAP4K4 (h), 320 nM.
Regarding `Cc1ccc(NC(=O)c2ccc(-c3c(-c4ccc(F)cc4)ncn3C3CCCCC3)o2)cc1Cl` [Compound 66, N-(3-chloro-4-methylphenyl)-5-(1-cyclohexyl-4-(4-fluorophenyl)-1H-imidazol-5-yl)furan-2-carboxamide], the IC50 is 531 nM at TNIK (setting [1]), 531 nM on TNIK (read-out: TNIK_IC50) and > 1000 nM at MAP4K4 (h).
For `Cc1ccc(NC(=O)c2ccc(-c3c(-c4ccc(F)cc4)ncn3C3CCCCC3)o2)c(C)c1` [Compound 67, 5-(1-cyclohexyl-4-(4-fluorophenyl)-1H-imidazol-5-yl)-N-(2,4-dimethylphenyl)furan-2-carboxamide], the IC50 at TNIK (setting [1]) was found to be 77 nM; at TNIK (read-out: TNIK_IC50) it was 77 nM; on MAP4K4 (h), 247 nM.
Take `Cc1ccc(NC(=O)c2ccc(-c3c(-c4ccc(F)cc4)ncn3C3CCCCC3)o2)c(Cl)c1` [Compound 68, N-(2-chloro-4-methylphenyl)-5-(1-cyclohexyl-4-(4-fluorophenyl)-1H-imidazol-5-yl)furan-2-carboxamide]: the figures for the IC50 on TNIK (setting [1]), on TNIK (read-out: TNIK_IC50) and on MAP4K4 (h) were 19 nM, 19 nM and 71.7 nM, respectively.
Consider `Cc1ccc(NC(=O)c2ccc(-c3c(-c4ccc(F)cc4)ncn3C3CCCCC3)o2)cc1C` [Compound 69, 5-(1-cyclohexyl-4-(4-fluorophenyl)-1H-imidazol-5-yl)-N-(3,4-dimethylphenyl)furan-2-carboxamide], for which the figures for the IC50 on TNIK (setting [1]), on TNIK (read-out: TNIK_IC50) and on MAP4K4 (h) were 90 nM, 90 nM and 288 nM, respectively.
For `Cc1cc(C)c(NC(=O)c2ccc(-c3c(-c4ccc(F)cc4)ncn3C3CCCCC3)o2)c(C)c1` [Compound 70, 5-(1-cyclohexyl-4-(4-fluorophenyl)-1H-imidazol-5-yl)-N-mesitylfuran-2-carboxamide], the IC50 at TNIK (setting [1]) was 936 nM; on TNIK (read-out: TNIK_IC50) it was 936 nM; on MAP4K4 (h), > 1000 nM.
For the compound `CC(=O)c1cccc(NC(=O)c2ccc(-c3c(-c4ccc(F)cc4)ncn3C3CCCCC3)o2)c1` [Compound 71, N-(3-acetylphenyl)-5-(1-cyclohexyl-4-(4-fluorophenyl)-1H-imidazol-5-yl)furan-2-carboxamide], the IC50 turned out to be 151 nM on TNIK (setting [1]), 151 nM on TNIK (read-out: TNIK_IC50) and 625 nM at MAP4K4 (h).
With `CSc1cccc(NC(=O)c2ccc(-c3c(-c4ccc(F)cc4)ncn3C3CCCCC3)o2)c1` [Compound 72, 5-(1-cyclohexyl-4-(4-fluorophenyl)-1H-imidazol-5-yl)-N-(3-(methylthio)phenyl)furan-2-carboxamide], the IC50 on TNIK (setting [1]) was 238 nM; on TNIK (read-out: TNIK_IC50), 238 nM; at MAP4K4 (h), 638 nM.
Turning to `CC(C)c1ccc(NC(=O)c2ccc(-c3c(-c4ccc(F)cc4)ncn3C3CCCCC3)o2)cc1` [Compound 73, 5-(1-cyclohexyl-4-(4-fluorophenyl)-1H-imidazol-5-yl)-N-(4-isopropylphenyl)furan-2-carboxamide], the IC50 amounted to 48 nM at TNIK (setting [1]), 48 nM at TNIK (read-out: TNIK_IC50) and 270 nM at MAP4K4 (h).
Regarding `CCc1cccc(NC(=O)c2ccc(-c3c(-c4ccc(F)cc4)ncn3C3CCCCC3)o2)c1` [Compound 74, 5-(1-cyclohexyl-4-(4-fluorophenyl)-1H-imidazol-5-yl)-N-(3-ethylphenyl)furan-2-carboxamide], the IC50 on TNIK (setting [1]) came out at 326 nM; at TNIK (read-out: TNIK_IC50) it was 326 nM; at MAP4K4 (h) it was 300 nM.
Consider `O=C(Nc1ccc(F)c(F)c1)c1ccc(-c2c(-c3ccc(F)cc3)ncn2C2CCCCC2)o1` [Compound 75, 5-(1-cyclohexyl-4-(4-fluorophenyl)-1H-imidazol-5-yl)-N-(3,4-difluorophenyl)furan-2-carboxamide], for which the IC50 was found to be 191 nM at TNIK (setting [1]), 191 nM at TNIK (read-out: TNIK_IC50) and 431 nM at MAP4K4 (h).
On to `O=C(Nc1ccc(Cl)cc1F)c1ccc(-c2c(-c3ccc(F)cc3)ncn2C2CCCCC2)o1` [Compound 76, N-(4-chloro-2-fluorophenyl)-5-(1-cyclohexyl-4-(4-fluorophenyl)-1H-imidazol-5-yl)furan-2-carboxamide], for which the results for the IC50 on TNIK (setting [1]), at TNIK (read-out: TNIK_IC50) and on MAP4K4 (h) were 42 nM, 42 nM and 70.3 nM, respectively.
Regarding `COc1ccc(C)cc1NC(=O)c1ccc(-c2c(-c3ccc(F)cc3)ncn2C2CCCCC2)o1` [Compound 77, 5-(1-cyclohexyl-4-(4-fluorophenyl)-1H-imidazol-5-yl)-N-(2-methoxy-5-methylphenyl)furan-2-carboxamide], the IC50 at TNIK (setting [1]) is 27 nM; on TNIK (read-out: TNIK_IC50), 27 nM; at MAP4K4 (h), 62.2 nM.
Turning to `CC(=O)Nc1ccc(NC(=O)c2ccc(-c3c(-c4ccc(F)cc4)ncn3C3CCCCC3)o2)cc1` [Compound 78, N-(4-acetamidophenyl)-5-(1-cyclohexyl-4-(4-fluorophenyl)-1H-imidazol-5-yl)furan-2-carboxamide], the IC50 was found to be 15 nM at TNIK (setting [1]), 15 nM on TNIK (read-out: TNIK_IC50) and 34.6 nM on MAP4K4 (h).

The values above are taken from patent publication US11739078B2, “Methods of inhibiting kinases” (INSILICO MEDICINE IP LIMITED, priority 2019, dated 2023).
